# “Also recorded” adds a separate entry of the source. Square brackets hold non-standard residues; d marks the D form. Ends that are not written are not given here. Cit = NC(=O)NCCC[C@H](N)C(=O)O
# Key:
# [1] = tested on: PS1223; experiment: Dynamic single-molecule sequencing, recognition by PS1223; format: binding; settings: for Pulse Width: recognizer PS1223, recognition of the N-terminal amino acid
# Procedure: (§1) Sequencing reactions using the recognizers PS610 (FYW), PS1220 (R), and PS1223 (LIV) were performed separately for the QP706 and QP1073 peptide fragments. Each recognizer was labeled with a unique dye and/or unique number of dyes. A scatter plot of bin ratio v. pulse duration is shown for the QP706 peptide fragment in FIG. 18A and for the QP1073 peptide fragment in FIG. 18B. In the plot of FIG. 18A, three clusters corresponding to FLE, LEQ, and RFL segments are visible. […] In the plot of FIG. 18B, two clusters corresponding to FLE and LEQ segments are visible, but there is no cluster corresponding to RFL.
# In this example, sequencing reactions were conducted for 4 pairs of unmodified and citrullinated peptides: QP1028 & QP1029, QP1030 & QP1031, QP1032 & QP1033, and QP707 & QP789. […] For the QP1028 & QP1029 and QP1030 & QP1031 pairs, sequencing reactions were conducted using the PS610 (FYW) recognizer. For the QP1032 & QP1033 and QP707 & QP789 pairs, sequencing reactions were conducted using the PS1223 (LIV) recognizer.
# [2] = tested on: PS961; experiment: Dynamic single-molecule sequencing, recognition by PS961; format: binding, Planctomycetes; settings: for RS mean PD, recognition of N-terminal leucine: tyrosine or phosphotyrosine at position 2
# Chain of PS961 (as listed by the source): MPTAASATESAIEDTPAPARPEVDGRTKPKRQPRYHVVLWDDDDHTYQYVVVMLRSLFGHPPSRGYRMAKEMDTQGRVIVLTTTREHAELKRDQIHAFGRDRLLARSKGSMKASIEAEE
# Procedure: (§2) The semiconductor chip was placed in the sequencing device and a chip check was performed to test electronic circuit function and to optimize laser coupling alignment. The chip was then removed from the device socket and the chip was washed twice with 50 μL of 70% isopropanol, followed by four washes with 30 μL of wash buffer (50 mM MOPS pH 8.0, 60 mM potassium acetate, 50 mM glucose, 20 mM magnesium acetate, and surfactant mix) through a flow cell attached to the chip. A second chip check was then performed. The laser was then blocked via an integrated software-controlled shutter, peptide complex was added to a final concentration of 1-10 nM and mixed thoroughly, and the chip was incubated for 15 min. The chip was then washed six times with wash buffer, followed by addition of an imaging solution (wash buffer with 5 mM Trolox and an oxygen scavenging system). The laser was unblocked and the occupancy percentage (target 10-30%, Poisson distributed) was recorded by acquiring a photobleaching signal from a fluorophore attached to the peptide complex during 5 min of laser illumination. For NAA recognition-only assays, after peptide loading, labeled recognizer was added to a final concentration of 50 nM PS610, 100 nM PS691, or 250 nM PS961 (as indicated according to the experiment), and data was recorded for 10 hours. For dynamic sequencing assays, after peptide loading, a mixture of labeled recognizers was added to obtain final concentrations of 50 nM PS610, 100 nM PS691, and 250 nM PS961. Data was recorded for 15 min. The laser was then blocked briefly and aminopeptidases were added to the sequencing reaction via the flow cell and mixed thoroughly (final concentration 2-8 μM PhTET2 and/or 20-80 μM PhTET3, as indicated according to the experiment). The laser was then unblocked, and data was recorded for 10 hours. For all runs, 30 μL of mineral oil was added to fluid reservoirs at each port of the flow cell to prevent evaporation during the run.
# (§3) The measured signal on-chip comprises various noise components, the most dominant one being due to fluorescent emissions from diffusing recognizers in the reaction chamber. The pulse caller algorithm for a given reaction chamber starts by estimating the statistical properties of this background noise component. Once an estimate within certain error bounds has been established, the algorithm works in an online fashion observing new frames of data as they are generated. At each point in time, the algorithm maintains state indicating whether the signal is due to the background component only or a pulse from a recognizer-NAA interaction is being observed. The state transition from background to pulse is triggered using an edge detection test where the shift in signal is expected to be significant with respect to the background component's statistical distribution. The state transition from pulse to background is triggered when a small window of the most recent frames of the signal appears to conform to the background component's distribution again. The algorithm maintains an updated model of the background component as new background frames are observed. This provides robustness against drift in the signal intensity together with a feedback control loop that maintains a stable optical coupling of the laser into the chip based on any such detected drift. As detected pulses can be due to true recognizer-to-dipeptide interaction events as well as other occasional transient noise spikes, a downstream filter layer is employed to test the significance of pulse events based on their duration, intensity, and noise patterns within the context of the full timeline of the run and the entire dataset of reaction chambers.
# Initial regions are determined by performing a sliding window calculation of pulse rate along the time dimension of a series of pulses. Regions with a mean pulse rate >1 pulse/min are then subdivided according to a greedy bisection approach.
# [3] = target: T1, PS621 (Kluyveromyces lactis, UniProt O60014, E174T/N105S/N176F/R116K/S153T/V146T); experiment: Dynamic single-molecule sequencing, recognition by PS621; format: binding; settings: unmodified arginine peptide, average of 10 sequencing reactions
# T1 construct: PS621; […]
# T1 sequence (O60014 other isoform, or with tags, fused parts or gaps N105S/R116K/V146T/S153T/E174T/N176F): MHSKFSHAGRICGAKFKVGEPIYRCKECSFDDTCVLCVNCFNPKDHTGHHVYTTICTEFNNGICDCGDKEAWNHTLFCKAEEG
# Excerpt: PTM detection involved isolating peptides and subjecting them to a real-time single-molecule protein sequencing reaction. Proteins were first digested into peptide fragments and conjugated C-terminally to macromolecular linkers. The peptide complexes were immobilized at the bottom of nanoscale wells on a semiconductor chip, resulting in single peptide molecules with exposed N-termini ready for sequencing. During the sequencing reaction, the surface-immobilized peptides were exposed to a solution containing dye-labeled NAA recognizers that bound on and off to their cognate NAAs with characteristic kinetic properties. Aminopeptidases in solution sequentially removed individual NAAs to expose subsequent amino acids for recognition. Fluorescence lifetime, intensity, and kinetic data were collected in real time and analyzed to determine amino acid sequence and PTM content.
# The trace-level output included distinct pulsing regions called recognition segments (RSs); each RS corresponded to a period of time between aminopeptidase cleavage events during which an NAA recognizer bound on and off to its exposed target NAA. Chemical modifications to a target NAA or to a nearby downstream amino acid can modulate recognizer affinity, resulting in a characteristic change in the average pulse duration (PD) during an RS relative to an unmodified peptide. These modifications can also influence the rate of aminopeptidase cleavage of an NAA, resulting in a characteristic change in average duration of the corresponding RS.
# Synthetic peptides corresponding to residues 69 to 76 of P38MAPKa were generated in three versions containing either arginine, ADMA, or SDMA at position 2: YRELRLLK (SEQ ID NO: 834), YRADMAELRLLK (SEQ ID NO: 835), and YRSDMAELRLLK (SEQ ID NO: 836). Each peptide was sequenced using three recognizers—PS610 (F, Y, W), PS961 (L, I, V), and PS621 (R)—and data were analyzed to identify RSs, determine the mean PD of each RS, and characterize the kinetic signature of each peptide.
# In this example, sequencing reactions were performed using PS621 (R), PS610 (FYW), and PS961 (LIV) recognizers for 9 pairs of peptides. Each pair comprised one peptide comprising an unmodified arginine residue followed by a non-arginine amino acid (referred to as an R-X peptide) and one peptide having an identical sequence except that the unmodified arginine was modified to be ADMA (referred to as an ADMA-X peptide).
# [4] = tested on: PS610; experiment: Dynamic single-molecule sequencing, recognition by PS610; format: binding, A. tumefaciens; settings: for RS mean PD, recognition of N-terminal phenylalanine: lysine or acetylated lysine downstream
# Procedure: as §2, with “The laser was then blocked via an integrated software-controlled shutter, peptide complex was added to a final concentration of 1-10 nM and mixed thoroughly, and the chip was incubated for 15 min.” left out, “For NAA recognition-only assays, after peptide loading, labeled recognizer was added to a final concentration of 50 nM PS610, 100 nM PS691, or 250 nM PS961 (as indicated according to the experiment), and data was recorded for 10 hours. For dynamic sequencing assays, after peptide loading, a mixture of labeled recognizers was added to obtain final concentrations of 50 nM PS610, 100 nM PS691, and 250 nM PS961. Data was recorded for 15 min.” left out
# as §3
# Initial regions are determined by performing a sliding window calculation of pulse rate along the time dimension of a series of pulses. Regions with a mean pulse rate >1 pulse/min are then subdivided according to a greedy bisection approach. Here, the pulses on the left and right of each potential split are assessed for statistically significant deviation in any of four separate pulse properties—intensity, bin ratio, pulse duration, and interpulse duration—using a Mann-Whitney U Test. To define RSs, the split point with the lowest p-value for any of the four properties is used to sub-divide the region and the process continues until no regions remain with a candidate split point with p-value <10^−5 in any comparison. In this manner, transitions from one RS to the next in a region of continuous pulsing are determined a priori on the basis of changes in fluorescence properties of pulsing kinetics.
# [5] = target: T2, PS1165; experiment: Dynamic single-molecule sequencing, recognition by PS1165; format: binding; settings: lysine or acetylated lysine downstream
# T2 construct: PS1165; 511
# T2 sequence (Q13490 with tags, fused parts or gaps): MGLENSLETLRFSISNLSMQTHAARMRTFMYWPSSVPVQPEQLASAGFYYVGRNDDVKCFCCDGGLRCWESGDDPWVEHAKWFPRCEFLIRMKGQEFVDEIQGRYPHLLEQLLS
# Procedure: Sequencing reactions using the recognizers PS691 (R), PS610 (FYW), PS961 (LIV), and PS1165 (A) were performed separately for the peptides RLYFKAYPDDD (SEQ ID NO: 825) and RLK{acetyl}FIAYPDDD (SEQ ID NO: 826) (where K{acetyl} is an acetylated lysine). Recognition of the N-terminal phenylalanine and alanine residues preceding lysine or acetyl-lysine by PS610 and PS1165, respectively, was observed, with distinct pulse durations depending on whether the peptide contained lysine (F=1.4 s, A=1.3 s; FIG. 16A) or acetylated lysine (F=1.8 s, A=2.2 s; FIG. 16B). Recognition of N-terminal phenylalanine occurred with RS mean PD of 1.4 s for FAK and 1.8 s for FAK{acetyl }. Recognition of N-terminal alanine occurred with RS mean PD of 1.3 s for AK and 2.2 s for AK{acetyl}.
# [6] = tested on: PS691; settings: tyrosine or phosphotyrosine at position 3
# Procedure: The semiconductor chip was placed in the sequencing device and a chip check was performed to test electronic circuit function and to optimize laser coupling alignment. The chip was then removed from the device socket and the chip was washed twice with 50 μL of 70% isopropanol, followed by four washes with 30 μL of wash buffer (50 mM MOPS pH 8.0, 60 mM potassium acetate, 50 mM glucose, 20 mM magnesium acetate, and surfactant mix) through a flow cell attached to the chip. A second chip check was then performed. […] The laser was unblocked and the occupancy percentage (target 10-30%, Poisson distributed) was recorded by acquiring a photobleaching signal from a fluorophore attached to the peptide complex during 5 min of laser illumination. For NAA recognition-only assays, after peptide loading, labeled recognizer was added to a final concentration of 50 nM PS610, 100 nM PS691, or 250 nM PS961 (as indicated according to the experiment), and data was recorded for 10 hours. […] Data was recorded for 15 min. […]
# The measured signal on-chip comprises various noise components, the most dominant one being due to fluorescent emissions from diffusing recognizers in the reaction chamber. […] This provides robustness against drift in the signal intensity together with a feedback control loop that maintains a stable optical coupling of the laser into the chip based on any such detected drift. […]
# [7] = target: T3, PS1220 (Kluyveromyces lactis, UniProt O60014, E169T/E174T/I162E/N105S/N176F/R116K/S153T/V146L); experiment: Dynamic single-molecule sequencing, recognition by PS1220; format: binding; settings: vimentin peptide fragments
# T3 construct: PS1220; 566
# T3 sequence (O60014 with tags, fused parts or gaps N105S/R116K/V146L/S153T/I162E/E169T/E174T/N176F): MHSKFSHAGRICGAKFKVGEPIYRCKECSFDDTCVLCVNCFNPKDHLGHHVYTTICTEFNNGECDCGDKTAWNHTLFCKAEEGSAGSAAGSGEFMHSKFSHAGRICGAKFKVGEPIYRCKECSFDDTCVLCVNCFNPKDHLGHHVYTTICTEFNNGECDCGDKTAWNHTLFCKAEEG
# Procedure: as §1
# Results from additional sequencing reactions performed using the recognizers PS610 (FYW), PS1220 (R), and PS1223 (LIV) and the QP706 and QP1073 peptide fragments are shown in FIGS. 19A-19D and 20A-20D. Traces from the QP706 reactions are shown in FIGS. 19A-19B, and corresponding scatter plots of intensity v. bin ratio are shown in FIGS. 19C-19D. […] Traces from the QP1073 reactions are shown in FIGS. 20A-20B, and the corresponding scatter plots of intensity v. bin ratio are shown in FIGS. 20C-20D.
# Chain of PS1223 (as listed by the source): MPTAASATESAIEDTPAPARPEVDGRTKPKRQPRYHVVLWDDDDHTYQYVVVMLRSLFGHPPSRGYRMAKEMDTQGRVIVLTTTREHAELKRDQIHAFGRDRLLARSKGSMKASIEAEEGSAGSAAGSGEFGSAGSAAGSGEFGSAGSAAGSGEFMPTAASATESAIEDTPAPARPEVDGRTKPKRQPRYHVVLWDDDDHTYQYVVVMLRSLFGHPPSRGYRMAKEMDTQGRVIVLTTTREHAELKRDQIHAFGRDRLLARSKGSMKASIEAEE
substance,measurement,setting,value
ICitLAFAYPDDDK (I[Cit]LAFAYPDDDK-NH2; also: C-terminal azidolysine (general statement for all synthetic peptides)) [QP1033],Pulse Width,[1],0.84 s
IRLAFAYPDDDK [QP1032],Pulse Width,[1],0.58 s
LRLAFAYPDDDK [QP707],Median PD of recognition of N-terminal leucine by PS961,[2]; arginine or citrulline at position 2,0.43 s
same,RS R-X,[3]; RS duration,17.3 min
same,PW of R-X,[3],0.47 s
same,Pulse Width,[1],0.42 s
"RLK{acetyl}FIAYPDDD (RLK(Ac)FIAYPDDD-NH2; also: C-terminal azidolysine (general statement for all synthetic peptides)) [FAK{acetyl }, peptide containing acetylated lysine]","RS mean PD, recognition of N-terminal phenylalanine",[4],1.8 s
same,"RS mean PD, recognition of N-terminal alanine",[5],2.2 s
RLYFIAYPDDD,Recognition of Y or pY by PS610 between L and F,[4],Y recognition
same,"RS mean PD, recognition of N-terminal leucine",[2],2.45 s
same,"RS mean PD, recognition of N-terminal arginine",[6],0.9 s
RLYFKAYPDDD (FAK) [peptide containing lysine],"RS mean PD, recognition of N-terminal phenylalanine",[4],1.4 s
same,"RS mean PD, recognition of N-terminal alanine",[5],1.3 s
RLpYFIAYPDDD,Recognition of Y or pY by PS610 between L and F,[4],not recognized
same,"RS mean PD, recognition of N-terminal leucine",[2],3.4 s
same,"RS mean PD, recognition of N-terminal arginine",[6],0.45 s
"VCitFLEQQNK (V[Cit]FLEQQNK) [QP1073, citrullinated peptide fragment of vimentin]",Recognition of arginine / citrulline residue by PS1220,[7],did not recognize; also recorded: does not recognize
"VRFLEQQNK [QP706, peptide fragment of vimentin]",Recognition of phenylalanine (F) residue by PS610,[4]; vimentin peptide fragments,recognized; also recorded: recognition
same,Recognition of leucine (L) residue by PS1223,[1]; vimentin peptide fragments,recognized; also recorded: recognition
same,Recognition of arginine / citrulline residue by PS1220,[7],recognized; also recorded: recognition
